“Also recorded” adds a separate entry of the source.

One assay relates to mice. Description: Inhibitory Avoidance in Mouse (24-hour recall). The class given is in vivo. Particulars: 24 hours after initial exposure, 0.001, 0.01, 0.1, and 1.0 mg/kg i.p., versus control. On the procedure:
Inhibitory Avoidance in Mouse: The inhibitory avoidance task involves the uses of a two-compartment step through apparatus (Ugo Basile, Collegeville, Pa.) that measures the animal's ability to remember a brief noxious stimulus (foot shock), and is considered a measure of trial learning, and memory consolidation. Briefly, 30 minutes after dosing, mice were placed in a lighted compartment of the apparatus where the latency to enter into the preferred dark compartment is recorded. Entry into a dark compartment results in the immediate delivery of a mild foot shock (0.2 mA, 1-second duration). Retention testing is conducted 24 hours later with the animal again placed in the lighted compartment where its latency to reenter the dark side of the apparatus is measured (no shock). Increasing retention latency is regarded as an index of memory consolidation (Bitner, R. S.; Bunnelle, W. H.; et al. Broad-spectrum efficacy across cognitive domains by α7 nicotinic acetylcholine receptor agonism correlates with activation of ERK1/2 and CREB phosphorylation pathways. J. Neurosci. 2007, 27 (39), 10578-10587.). […] (*p<0.05; **p<0.01, ***p<0.001 versus control)

The subject of assay [1] is primary postnatal (P0) cortical cells. The experiment in a line: Neurite Outgrowth Assay (neuroprotection against Aβ1-42-induced reduction of neurite outgrowth). Particulars: for % Attenuation Effect of 5 μM Aβ 1-42: 5 μM Aβ1-42, 3 days, compound pretreatment about 5 hours; for Emax at 0.3 µM: maximum response at 300 nM test compound. The class given is cell-based, rat. How it is done: In addition to PC12 cells, other cellular model systems may also be used. Rat cortical cells can be cultured and prepared for high content microscopy analysis as previously described (Hu, M.; Schurdak, M. E.; et al. High content screen microscopy analysis of Aβ1-42-induced neurite outgrowth reduction in rat primary cortical neurons: Neuroprotective effects of α7 neuronal nicotinic acetylcholine receptor ligands. Brain Res. 2007, 1151, 227-235.). Briefly, cortical cell cultures are plated at density of 5×10^5 cells/mL onto poly-D-lysine coated 96-well plates and maintained in a cell incubator at 37° C. with 5% CO2. Experiments are performed using 6-7 day-old cortical cell cultures by treating with test compounds. In some experiments, the effect of test compounds on reversing Aβ toxicity can also be measured (Hu, M.; Schurdak, M. E.; et al. High content screen microscopy analysis of Aβ1-42-induced neurite outgrowth reduction in rat primary cortical neurons: Neuroprotective effects of α7 neuronal nicotinic acetylcholine receptor ligands. Brain Res. 2007, 1151, 227-235.). For assessment of neuroprotective effects, cells are first pretreated with test compounds for about 5 hours. Medium is then replaced with the medium containing freshly prepared about 5 μM Aβ1-42 peptide in the absence or presence of the test compounds for 3 days. The untreated group contains the same percentage of vehicle (DMSO) as in the treatment groups. Cells are fixed with approximately 4% paraformaldehyde containing 0.5% Hoechst 33342 for about 15 minutes, followed by three washes using PBS (pH 7.4) and blocked with 10% donkey serum in PBS for 1 hour at room temperature. The cells are then incubated overnight at about 4° C. with mouse anti-tubulin monoclonal antibody (1:100) for staining neurons and rabbit anti-GFAP (1:1000) for staining glia. In the next day, cells are incubated with FITC-labeled anti-mouse and TRITC-labeled anti-rabbit antibodies (1:1000) for about 1 hour at room temperature. After fixing and staining the cells, nuclei (360/400 nm excitation and 465/300 nm emission filters), neuron (475/350 nm excitation and 535/400 nm emission filters) and glial cell (535 nm excitation and 610 nm emission filters) images are collected using the ImageExpress Micro automatic fluorescent microscopy system (Molecular Devices, Sunnyvale, Calif.) employing a Nikon 10× Plan Fluor objective and Cool Snap HQ CCD camera. The Neurite Outgrowth module in the MetaMorph Imaging software can be used to automatically count total cell number, number of neuron cells, and the extent of neurite outgrowth.
The neurite outgrowth observed for untreated cells is set to 100% response. Treatment of cells with compounds prior to and concomitantly with Aβ1-42 gave a neuroprotective effect with neurite outgrowth maintained or enhanced relative to untreated cells.

Assay [2] concerns SK-N-SH human neuroblastoma cells. The experiment in a line: Serum Deprivation/JC-1 Mitochondrial Membrane Potential (MMP) Assay. The assay is classed as cell-based. Conditions: for Emax / JC-1 max %: percent maximal JC-1 ratio normalized to peak value for 10 μM dimebolin; for Emax: read-out: JC-1 max %; for EC50: serum deprivation ~18 hours, JC-1 ratio normalized to peak value for 10 μM dimebolin. On the procedure:
Tissue Culture: SK-N-SH human neuroblastoma cells obtained from American Type Culture Collection (Rockville, Md.) were maintained in the log phase of growth in Minimal Essential Media (MEM), 10% heat inactivated fetal calf serum and 100 units/mL antibiotic-antimycotic (AA). Cells were cultured and maintained in a humidified incubator at 37° C. under 5% CO2 and 95% air. Cells were trypsinized (0.25%) and subcultured every 3 days and used from 15-18 passages. All cell culture supplies were obtained from Invitrogen (Carlsbad, Calif.).
Serum Deprivation/JC-1 Mitochondrial Membrane Potential (MMP) Assay.
SK-N-SH cells were plated 2-3 days in advance at a concentration of 50,000 cells/well onto collagen coated black-walled 96 well plates (Becton-Dickinson, Bedford, Mass.) in a total volume of 200 μL. On day of experimental treatment, the media containing serum was aspirated from each well and rinsed once with MEM/1% AA without serum. The cells then were incubated overnight in 100 μL of MEM/1% AA (no serum) with and without dimebolin or novel chemical entities overnight for ˜18 hours. The following day, JC-1 dye (5,5′,6,6′-tetrachloro-1,1′,3,3′-tetraethylbenzimidazolcarbocyanide) was diluted 1:10 into MEM media according to the JC-1 Mitochondrial Membrane Potential Assay Kit: (Cayman Chemical Company, Ann Arbor, Mich.) and then 10 μL of the JC-1 dye solution was added to each well. The plates were centrifuged for 5 minutes at 400×g at room temperature followed by 40 minute incubation at 37° C. The plates were washed twice with 200 μL of provided Assay Buffer followed an addition of 100 μL of Assay Buffer to each well. The plates were read with an excitation and emission of 560 nm and 595 nM for red fluorescence and with an excitation and emission of […] and 535 nM for green fluorescence to determine the final JC-1 value taking the red to green fluorescence ratio. This assay is based on change in mitochondrial membrane potential (MMP) using this lipophilic cationic dye, JC-1, by monitoring the changes in the ratio of red to green fluorescence as the MMP depolarizes. This change in MMP reflects the health of the cell with healthy, viable cells have a high JC-1 ratio and high MMP whereas apoptotic, unhealthy cells have a low JC-1 ratio or low MMP.
For the ability of compounds to reverse the stress due to serum deprivation and increase the JC-1 ratio, the percent maximal intensity in JC-1 ratio was normalized to that induced by the peak value for 10 μM dimebolin and plotted against the compound concentration to calculate EC50 values and to control for plate-to-plate variability. Concentration-response data were analyzed using GraphPad Prism (San Diego, Calif.); the EC50 values were derived from a single curve fit to the mean data of n=2-3, in duplicates.
All compounds were dissolved in dimethyl sulfoxide at 10 mM stock solutions and tested at a concentration that the dimethyl sulfoxide levels never exceeded 1%.

Where [3] appears, read: Rattus norvegicus, relative to 300 nM dimebolin, read-out: Maximum Effect (of % 300 nM Dimebolin) at Concentration.

For the molecule `Cc1ccc(/C=C/c2cccc3c4c([nH]c23)C2CCN(CC2)C4)cn1` [Example 1, 7-[(E)-2-(6-methylpyridin-3-yl)vinyl]-3,4,5,6-tetrahydro-1H-2,5-ethanoazepino[4,3-b]indole], the “latency to reenter the dark side (punishment side)” value with mice is given as “significantly increased; also recorded: concentration-dependent improvement”. In assay [1], the “% Attenuation Effect of 5 μM Aβ 1-42” value amounted to 34%. The Emax at 3 µM in assay [1] (Rattus norvegicus, maximum response at 3000 nM test compound, relative to 300 nM dimebolin, read-out: Maximum Effect (of % 300 nM Dimebolin) at Concentration) turned out to be 106%. For the same molecule, in assay [2] (Homo sapiens, SK-N-SH), the Emax was determined as 139% and the EC50 (commonly the concentration that produces a half-maximal response) turned out to be 6.02 µM.
On to `Cc1ccc(/C=C/c2ccc3[nH]c4c(c3c2)CN2CCC4CC2)cn1` [Example 8, 9-[(E)-2-(6-methylpyridin-3-yl)vinyl]-3,4,5,6-tetrahydro-1H-2,5-ethanoazepino[4,3-b]indole], for which the “% Attenuation Effect of 5 μM Aβ 1-42” value in assay [1] is given as 49%. Further, the Emax at 0.3 µM in assay [1] (setting [3]) stood at 121%. Further, in assay [2] (Homo sapiens, SK-N-SH), the Emax turned out to be 162% and the EC50 was 4.05 µM.
Consider `c1cnc2ccc(-c3cccc4c5c([nH]c34)C3CCN(CC3)C5)cc2c1` [Example 27, 7-quinolin-6-yl-3,4,5,6-tetrahydro-1H-2,5-ethanoazepino[4,3-b]indole], for which the “% Attenuation Effect of 5 μM Aβ 1-42” value in assay [1] was determined as 38%. Moreover, the Emax at 0.3 µM in assay [1] (setting [3]) stood at 109%. Besides, in assay [2] (Homo sapiens, SK-N-SH), the Emax came out at 133% and the EC50 was found to be 6.39 µM.
Turning to `Cc1ccc(/C=C/c2cccc3c4c([nH]c23)C2CC[N+]([O-])(CC2)C4)cn1` [Example 28, 7-[(E)-2-(6-methylpyridin-3-yl)yinyl]-1,2,3,4,5,6-hexahydro-2,5-ethanoazepino[4,3-b]indole 2-oxide], in assay [2], the JC-1 max % was found to be 50% and the EC50 is over 30 µM.
On to `Cc1ccc(/C=C\c2cccc3c4c([nH]c23)C2CCN(CC2)C4)cn1` [Example 31, 7-[(Z)-2-(6-methylpyridin-3-yl)vinyl]-3,4,5,6-tetrahydro-1H-2,5-ethanoazepino[4,3-b]indole], for which, in assay [2] (Homo sapiens, SK-N-SH), the Emax was found to be 120% and the EC50 came to 7.75 µM.
As for `Cc1ccc(/C=C/c2cccc3c4c([nH]c23)CN2CCC4CC2)cn1` [Example 32, 9-[(E)-2-(6-methylpyridin-3-yl)vinyl]-3,4,5,10-tetrahydro-1H-2,5-ethanoazepino[3,4-b]indole], in assay [2] (Homo sapiens, SK-N-SH), the Emax turned out to be 199% and the EC50 is 3.64 µM.
As for `Cc1ccc(CCc2cccc3c4c([nH]c23)CN2CCC4CC2)cn1` [Example 33, 9-[2-(6-methylpyridin-3-yl)ethyl]-3,4,5,10-tetrahydro-1H-2,5-ethanoazepino[3,4-b]indole], in assay [2] (Homo sapiens, SK-N-SH), the Emax was determined as 197% and the 50% effective concentration (EC50) worked out at 6.01 µM.
Regarding `C(=C\c1cccc2c3c([nH]c12)C1CCN(CC1)C3)/c1cccnc1` [Example 34, 7-[(E)-2-pyridin-3-ylvinyl]-3,4,5,6-tetrahydro-1H-2,5-ethanoazepino[4,3-b]indole], in assay [2] (Homo sapiens, SK-N-SH), the Emax was 109% and the concentration for a half-maximal effect (EC50) was 6.3 µM.
In the case of `Cc1ccc(/C=C/c2cccc3c4c([nH]c23)C2CCCN(C4)C2)cn1` (stereo not shown) [Example 35, 8-[(E)-2-(6-methylpyridin-3-yl)vinyl]-1,3,4,5,6,7-hexahydro-2,6-methanoazocino[4,3-b]indole], in assay [2] (Homo sapiens, SK-N-SH), the Emax turned out to be 213% and the EC50 worked out at 7.28 µM.
Regarding `Cc1ccc(/C=C/c2cccc3c2NC2C4CCN(CC4)CC32)cn1` (stereo not drawn) [Example 36, (cis)-7-[(E)-2-(6-methylpyridin-3-yl)vinyl]-3,4,5,5a,6,10b-hexahydro-1H-2,5-ethanoazepino[4,3-b]indole], in assay [2], the JC-1 max % came to 196% and the EC50 turned out to be 6.89 µM.
In the case of `Cc1ccc(-c2cccc3c4c([nH]c23)C2CCN(CC2)C4)cn1` [Example 37, 7-(6-methylpyridin-3-yl)-3,4,5,6-tetrahydro-1H-2,5-ethanoazepino[4,3-b]indole], in assay [2] (Homo sapiens, SK-N-SH), the Emax came to 179% and the EC50 turned out to be 8.66 µM.
For the molecule `c1cc(-c2cncnc2)c2[nH]c3c(c2c1)CN1CCC3CC1` [Example 38, 7-(pyrimidin-5-yl)-3,4,5,6-tetrahydro-1H-2,5-ethanoazepino[4,3-b]indole], in assay [2] (Homo sapiens, SK-N-SH), the Emax turned out to be 76% and the EC50 turned out to be 10.5 µM.
For the molecule `c1cncc(-c2cccc3c4c([nH]c23)C2CCN(CC2)C4)c1` [Example 39, 7-(pyridin-3-yl)-3,4,5,6-tetrahydro-1H-2,5-ethanoazepino[4,3-b]indole], in assay [2] (Homo sapiens, SK-N-SH), the Emax was 113% and the EC50 was determined as 10.3 µM.
For the molecule `c1cc(-c2ccncc2)c2[nH]c3c(c2c1)CN1CCC3CC1` [Example 40, 7-(pyridin-4-yl)-3,4,5,6-tetrahydro-1H-2,5-ethanoazepino[4,3-b]indole], in assay [2] (Homo sapiens, SK-N-SH), the Emax was 92% and the concentration for a half-maximal effect (EC50) is 8.99 µM.
Turning to `c1ccc2ncc(-c3cccc4c5c([nH]c34)C3CCN(CC3)C5)cc2c1` [Example 41, 7-(quinolin-3-yl)-3,4,5,6-tetrahydro-1H-2,5-ethanoazepino[4,3-b]indole], in assay [2] (Homo sapiens, SK-N-SH), the Emax is 171% and the EC50 came out at 3.68 µM.

The values are drawn from patent US8524703B2, “Bridgehead amine ring-fused indoles and indolines” (AbbVie Inc., priority 2009, dated 2013).
